One test addresses T1, FRAP1 (mTOR) kinase (Homo sapiens, UniProt P42345).
T1 construct: purchased Invitrogen PV4753
Put plainly: Inhibition of mTOR-induced p-4E-BP1 phosphorylation (TR-FRET mTOR Activity Kit; Invitrogen). Type of test: biochemical. The note with it: 400 nM GFP-4E-BP1 substrate, ~150 ng/mL mTOR, one hour at room temperature. The method in brief: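 LanthaScreen TR-FRET: mTOR with GFP-4E-BP1 substrate in HEPES pH 7.5 buffer with 10 mM MnCl2, compound preincubated 30 min at RT, then ATP added and reacted 1 h at 20-25 °C. Stopped with EDTA plus Tb-anti-p4E-BP1 (pThr46), 1 h; GFP/Tb emission ratio over a 16-point curve, sigmoidal fit for IC50.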

The test system of the next test is PC-3 cells. Put plainly: Inhibition of proliferation: CyQuant PC-3. Type of test: cell-based. The conditions noted are these: 72 h; PC-3 human prostate carcinoma cells, incubated with compounds for 3 days, CyQuant NF DNA dye. The method, boiled down:
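PC-3 proliferation read by CyQuant NF: DNA-binding dye with membrane permeabilization reagent added after medium removal, 30-60 min incubation, fluorescence at Ex 485/Em 530 nm. Proliferation judged from cell counts of drug-treated versus untreated controls.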

The text below walks through data of patent US8288379B2, “Thia-triaza-cyclopentazulenes” (Boehringer Ingelheim International GmbH, priority 2009, dated 2012).

T1 sequence (P42345 1360-2549 limits assumed): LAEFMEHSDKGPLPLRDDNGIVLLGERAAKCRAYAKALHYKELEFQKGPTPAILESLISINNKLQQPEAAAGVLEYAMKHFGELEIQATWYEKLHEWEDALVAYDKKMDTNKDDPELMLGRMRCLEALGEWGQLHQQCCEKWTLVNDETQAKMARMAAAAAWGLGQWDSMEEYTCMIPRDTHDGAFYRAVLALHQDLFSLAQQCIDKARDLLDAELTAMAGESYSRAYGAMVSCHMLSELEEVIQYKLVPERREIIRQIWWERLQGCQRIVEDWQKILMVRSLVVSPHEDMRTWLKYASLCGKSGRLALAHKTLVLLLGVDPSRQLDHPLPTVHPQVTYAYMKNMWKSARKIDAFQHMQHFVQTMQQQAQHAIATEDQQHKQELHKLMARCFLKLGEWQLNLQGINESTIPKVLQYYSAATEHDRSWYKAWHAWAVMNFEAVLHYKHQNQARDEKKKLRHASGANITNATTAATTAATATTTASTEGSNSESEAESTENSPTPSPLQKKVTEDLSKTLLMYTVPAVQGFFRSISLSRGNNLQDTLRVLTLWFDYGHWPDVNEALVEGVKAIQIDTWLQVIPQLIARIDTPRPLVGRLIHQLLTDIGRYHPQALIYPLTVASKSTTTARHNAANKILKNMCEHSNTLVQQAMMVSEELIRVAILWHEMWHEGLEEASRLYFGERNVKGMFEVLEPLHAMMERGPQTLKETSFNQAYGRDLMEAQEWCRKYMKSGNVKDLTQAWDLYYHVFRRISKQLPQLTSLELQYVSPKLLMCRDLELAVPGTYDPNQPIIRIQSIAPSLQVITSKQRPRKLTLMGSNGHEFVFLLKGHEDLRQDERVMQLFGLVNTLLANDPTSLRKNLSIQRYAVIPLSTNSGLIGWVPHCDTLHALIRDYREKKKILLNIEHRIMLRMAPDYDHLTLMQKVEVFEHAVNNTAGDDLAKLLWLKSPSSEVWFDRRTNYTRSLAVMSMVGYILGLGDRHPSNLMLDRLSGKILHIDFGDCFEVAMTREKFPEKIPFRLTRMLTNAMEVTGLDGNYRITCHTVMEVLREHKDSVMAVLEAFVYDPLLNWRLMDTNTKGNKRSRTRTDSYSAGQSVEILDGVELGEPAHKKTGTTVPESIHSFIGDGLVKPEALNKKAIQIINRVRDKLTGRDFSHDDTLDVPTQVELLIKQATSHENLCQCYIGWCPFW

Regarding `CNc1ccc(-c2nn(-c3ccccc3Cl)c3c2CCCc2nc(NC(C)=O)sc2-3)cn1` [Example B-28, N-[1-(2-Chloro-phenyl)-3-(6-methylamino-pyridin-3-yl)-1,4,5,6-tetrahydro-9-thia-1,2,7-triaza-cyclopenta[e]azulen-8-yl]-acetamide], the IC50 against FRAP1 (mTOR) kinase is 50 nM. Also, the EC50 in the test with PC-3 cells is 70 nM.
In turn, `CC(=O)Nc1nc2c(s1)-c1c(c(-c3ccc(C)nc3)nn1-c1ccccc1F)CCC2` [Example B-17, N-[1-(2-Fluoro-phenyl)-3-(6-methyl-pyridin-3-yl)-1,4,5,6-tetrahydro-9-thia-1,2,7-triaza-cyclopenta[e]azulen-8-yl]-acetamide] had a concentration for half-maximal inhibition (IC50) at FRAP1 (mTOR) kinase of 53 nM. In the test with PC-3 cells, the EC50 came to 114 nM.
As for `C=CCn1nc(-c2ccc(NC)nc2)c2c1-c1sc(NC(=O)N(C)C)nc1CCC2` [Example B-47], the half-inhibitory concentration (IC50) at FRAP1 (mTOR) kinase was found to be 734 nM. For the same compound, the EC50 with PC-3 cells stood at 703 nM.
In the case of `CNc1ccc(-c2nn(-c3cccc(OC)c3)c3c2CCCc2nc(NC(C)=O)sc2-3)cn1` [Example B-89], on FRAP1 (mTOR) kinase, the IC50 came to 57 nM. Besides, the EC50 in the test on PC-3 cells was 72 nM.
In the same order, the values of `COCCC(=O)Nc1nc2c(s1)-c1c(c(-c3ccc(N)nc3)nn1-c1ccccc1F)CCC2` [Example E-15, N-[3-(6-Amino-pyridin-3-yl)-1-(2-fluoro-phenyl)-1,4,5,6-tetrahydro-9-thia-1,2,7-triaza-cyclopenta[e]azulen-8-yl]-3-methoxy-propionamide] are 47 nM and 138 nM.
On the same counts, the results for `CCNc1ccc(-c2nn(-c3cccnc3)c3c2CCCc2nc(NC(C)=O)sc2-3)cn1` [Example B-127] are 83 nM and 137 nM.
`CC(=O)Nc1nc2c(s1)-c1c(c(-c3c[nH]c(C)n3)nn1CC(C)C)CCC2` [Example B-121, N-[1-Isobutyl-3-(2-methyl-1H-imidazol-4-yl)-1,4,5,6-tetrahydro-9-thia-1,2,7-triaza-cyclopenta[e]azulen-8-yl]-acetamide]: inhibition at FRAP1 (mTOR) kinase was half-maximal at 35 nM (IC50). Besides, the EC50 in the test with PC-3 cells amounted to 73 nM.
For the compound `CCNc1ccc(-c2nn(-c3ccncc3C)c3c2CCCc2nc(NC(C)=O)sc2-3)cn1` [Example B-77, N-[3-(6-Ethylamino-pyridin-3-yl)-1-(3-methyl-pyridin-4-yl)-1,4,5,6-tetrahydro-9-thia-1,2,7-triaza-cyclopenta[e]azulen-8-yl]-acetamide], the 50% inhibitory concentration (IC50) at FRAP1 (mTOR) kinase was determined as 34 nM. For the same compound, in the test on PC-3 cells, the EC50 stood at 126 nM.
Compound `CC(=O)Nc1nc2c(s1)-c1c(c(-c3ccc(N)nc3)nn1-c1ccccc1Cl)CCC2` [Example B-64, N-[3-(6-Amino-pyridin-3-yl)-1-(2-chloro-phenyl)-1,4,5,6-tetrahydro-9-thia-1,2,7-triaza-cyclopenta[e]azulen-8-yl]-acetamide] showed an IC50 against FRAP1 (mTOR) kinase of 9 nM. Moreover, the EC50 in the test with PC-3 cells was found to be 82 nM.
For the compound `CCNc1ccc(-c2nn(-c3ccccc3C)c3c2CCCc2nc(NC(=O)CCCN(C)C)sc2-3)cn1` [Example B-70], the IC50 at FRAP1 (mTOR) kinase was determined as 62 nM. For the same compound, the 50% effective concentration (EC50) in the test on PC-3 cells amounted to 284 nM.
On to `CCNc1ccc(-c2nn(C3CCCOC3)c3c2CCCc2nc(NC(C)=O)sc2-3)cn1` (centres unmarked) [Example B-60], for which, at FRAP1 (mTOR) kinase, inhibition was half-maximal at 109 nM (IC50). In the test on PC-3 cells, the EC50 came out at 170 nM.
`CC(=O)Nc1nc2c(s1)-c1c(c(-c3c[nH]c(C)n3)nn1-c1ccccc1C)CCC2` [Example B-120, N-[3-(2-Methyl-1H-imidazol-4-yl)-1-o-tolyl-1,4,5,6-tetrahydro-9-thia-1,2,7-triaza-cyclopenta[e]azulen-8-yl]-acetamide]: on FRAP1 (mTOR) kinase, 65 nM corresponded to half-maximal inhibition (IC50). Moreover, the EC50 in the test on PC-3 cells is 250 nM.
Consider `COCCC(=O)Nc1nc2c(s1)-c1c(c(-c3ccc(N)nc3)nn1-c1ccccc1C)CCC2` [Example B-103, N-[3-(6-Amino-pyridin-3-yl)-1-o-tolyl-1,4,5,6-tetrahydro-9-thia-1,2,7-triaza-cyclopenta[e]azulen-8-yl]-3-methoxy-propionamide], for which it took 37 nM to reach half-maximal inhibition against FRAP1 (mTOR) kinase (IC50). For the same compound, the EC50 with PC-3 cells was found to be 87 nM.
Take `CC(=O)Nc1nc2c(s1)-c1c(c(-c3ccc(C)nc3)nn1-c1cccnc1C)CCC2` [Example B-137, N-[1-(2-Methyl-pyridin-3-yl)-3-(6-methyl-pyridin-3-yl)-1,4,5,6-tetrahydro-9-thia-1,2,7-triaza-cyclopent[e]azulen-8-yl]acetamide]: the IC50 on FRAP1 (mTOR) kinase came to 422 nM. Moreover, the concentration giving a half-maximal response (EC50) in the test with PC-3 cells amounted to 1240 nM.
In turn, `CNc1ccc(-c2nn(C3CCN(C)CC3)c3c2CCCc2nc(NC(=O)N(C)C)sc2-3)cn1` [Example B-56] came in with an IC50 at FRAP1 (mTOR) kinase of 379 nM. Moreover, the EC50 in the test with PC-3 cells is 579 nM.
Compound `COCCn1nc(-c2ccc(N)nc2)c2c1-c1sc(NC(C)=O)nc1CCC2` [Example B-132, N-[3-(6-Amino-pyridin-3-yl)-1-(2-methoxy-ethyl)-1,4,5,6-tetrahydro-9-thia-1,2,7-triaza-cyclopenta[e]azulen-8-yl]-acetamide] registered an IC50 on FRAP1 (mTOR) kinase of 52 nM. The EC50 with PC-3 cells was 326 nM.
On the same counts, the results for `CC(=O)Nc1nc2c(s1)-c1c(c(-c3c[nH]cn3)nn1-c1ccc(C3(N(C)C)CC3)cc1)CCC2` [Example B-115] are 2 nM and 16 nM.
On the same counts, the results for `CCn1nc(-c2ccc(N)nc2)c2c1-c1sc(NC(=O)N(C)C)nc1CCC2` [Example B-35] are 219 nM and 408 nM.
Turning to `CC(=O)Nc1nc2c(s1)-c1c(c(-c3ccc(C)nc3)nn1C(C)C)CCC2` [Example B-09, N-[1-Isopropyl-3-(6-methyl-pyridin-3-yl)-1,4,5,6-tetrahydro-9-thia-1,2,7-triaza-cyclopent[e]azulen-8-yl]acetamide], the IC50 on FRAP1 (mTOR) kinase stood at 266 nM. In the test with PC-3 cells, the EC50 worked out at 334 nM.
`CN(C)C(=O)Nc1nc2c(s1)-c1c(c(-c3ccc(N)nc3)nn1C1CCN(C3CC3)CC1)CCC2` [Example B-49, 3-[3-(6-Amino-pyridin-3-yl)-1-(1-cyclopropyl-piperidin-4-yl)-1,4,5,6-tetrahydro-9-thia-1,2,7-triaza-cyclopenta[e]azulen-8-yl]-1,1-dimethyl-urea] showed an IC50 against FRAP1 (mTOR) kinase of 41 nM. In the test with PC-3 cells, the EC50 was found to be 156 nM.
In the same order, the values of `C=CCn1nc(-c2ccc(NCC)nc2)c2c1-c1sc(NC(C)=O)nc1CCC2` [Example B-129] are 93 nM and 265 nM.
In turn, `CC(=O)Nc1nc2c(s1)-c1c(c(-c3c[nH]cn3)nn1-c1ccc(C(=O)N(C)C)cc1Cl)CCC2` [Example B-114] came in with a 50% inhibitory concentration (IC50) at FRAP1 (mTOR) kinase of 4 nM. For the same compound, the concentration giving a half-maximal response (EC50) in the test on PC-3 cells was 382 nM.
As for `CCNc1ccc(-c2nn(-c3ccccc3Cl)c3c2CCCc2nc(NC(C)=O)sc2-3)cn1` [Example B-75], half-maximal inhibition against FRAP1 (mTOR) kinase (IC50) required 49 nM. The concentration for a half-maximal effect (EC50) with PC-3 cells came to 113 nM.
In the same order, the values of `CCNc1ccc(-c2nn(-c3ccccc3)c3c2CCCc2nc(NC(C)=O)sc2-3)cn1` [Example B-122, N-[3-(6-Ethylamino-pyridin-3-yl)-1-phenyl-1,4,5,6-tetrahydro-9-thia-1,2,7-triaza-cyclopenta[e]azulen-8-yl]-acetamide] are 32 nM and 79 nM.
In the case of `COCC(=O)Nc1nc2c(s1)-c1c(c(-c3ccc(N)nc3)nn1-c1ccccc1F)CCC2` [Example E-18, N-[3-(6-Amino-pyridin-3-yl)-1-(2-fluoro-phenyl)-1,4,5,6-tetrahydro-9-thia-1,2,7-triaza-cyclopenta[e]azulen-8-yl]-2-methoxy-acetamide], inhibition against FRAP1 (mTOR) kinase was half-maximal at 59 nM (IC50). Moreover, the EC50 with PC-3 cells is 87 nM.

Broadly, the IC50 is the midpoint of a concentration-inhibition curve. In general, EC50 refers to the midpoint of the concentration-response curve.
